Data as given in ChEMBL document CHEMBL2439949, “Synthesis and structure-activity relationships of phenyl-substituted coumarins with anti-tubercular activity that target FadD32” (Bioorg Med Chem Lett, 2013).
Converted amounts (≈) assume the structure as drawn. The source made the active and inactive calls. No cut-off for these calls is given here.

What was measured:
[1] = system: Mycobacterium tuberculosis; experiment: Antimycobacterial activity against Mycobacterium tuberculosis H37Rv at 64 uM after 7 days; type: functional, organism-based
[2] = system: Mycobacterium tuberculosis; experiment: Antimycobacterial activity against Mycobacterium tuberculosis H37Rv after 7 days; type: functional; conditions: 168 h
HepG2 = experiment: Cytotoxicity against human HepG2 cells at 125 uM after 48 hrs; type: cell-based; conditions: hepg2, 48 h
[3] = system: Mycobacterium tuberculosis; experiment: Antimycobacterial activity against Mycobacterium tuberculosis H37Rv at 62 uM after 7 days; type: functional, organism-based
[4] = Solubility in water; type: physicochemical
[5] = Metabolic stability of the compound in human plasma assessed as compound remaining at 1 uM after 5 hrs; type: ADME, cell-free; conditions: read-out: Stability
[6] = Plasma protein binding in human at 1 uM after 5 hrs; type: ADME, cell-free; conditions: read-out: PPB (converted)
[7] = system: Mycobacterium tuberculosis; experiment: Antimycobacterial activity against Mycobacterium tuberculosis H37Rv at 250 uM after 7 days; type: functional
[8] = Cytotoxicity against human HepG2 cells after 48 hrs; type: cell-based; conditions: read-out: LD50
[9] = Clearance in Balb/c mouse at 10 mg/kg, po; type: ADME, organism-based; parameters: dose 10 mg/kg, route oral; conditions: in vivo
[10] = Metabolic stability of the compound in Balb/c mouse plasma assessed as compound remaining at 1 uM after 8 hrs; type: ADME, cell-free; conditions: read-out: Stability
Mus musculus [11] = experiment: Volume of distribution in Balb/c mouse at 10 mg/kg, po; type: ADME, organism-based; parameters: dose 10 mg/kg, route oral; conditions: in vivo
[12] = Half life in Balb/c mouse liver microsomes at 100 uM; type: ADME, Microsome
[13] = Initial plasma concentration in Balb/c mouse at 1 mg/kg, iv; type: ADME, organism-based; parameters: dose 1 mg/kg, route intravenous
[14] = Volume of distribution in Balb/c mouse at 1 mg/kg, iv; type: ADME, organism-based; parameters: dose 1 mg/kg, route intravenous; conditions: in vivo
[15] = Tmax in Balb/c mouse at 10 mg/kg, po; type: ADME, organism-based; parameters: dose 10 mg/kg, route oral; conditions: in vivo
[16] = Tmax in Balb/c mouse at 1 mg/kg, iv; type: ADME, organism-based; parameters: dose 1 mg/kg, route intravenous; conditions: in vivo
[17] = Half life in Balb/c mouse at 1 mg/kg, iv; type: ADME, organism-based; parameters: dose 1 mg/kg, route intravenous; conditions: in vivo
[18] = MRTlast in Balb/c mouse at 1 mg/kg, iv; type: ADME, organism-based; parameters: dose 1 mg/kg, route intravenous; conditions: in vivo
[19] = Half life in Balb/c mouse at 10 mg/kg, po; type: ADME, organism-based; parameters: dose 10 mg/kg, route oral; conditions: in vivo
Mus musculus [20] = experiment: Initial plasma concentration in Balb/c mouse at 10 mg/kg, po; type: ADME, organism-based; parameters: dose 10 mg/kg, route oral; conditions: in vivo
[21] = AUClast in Balb/c mouse at 1 mg/kg, iv; type: ADME, organism-based; parameters: time 0 - last, dose 1 mg/kg, route intravenous; conditions: plasma
[22] = Permeability of the compound from apical to basolateral side of human Caco2 cells at 10 uM; type: ADME, cell-based; conditions: Caco-2, read-out: permeability
[23] = AUClast in Balb/c mouse at 10 mg/kg, po; type: ADME, organism-based; parameters: time 0 - last, dose 10 mg/kg, route oral; conditions: plasma
[24] = Clearance in Balb/c mouse at 1 mg/kg, iv; type: ADME, organism-based; parameters: dose 1 mg/kg, route intravenous; conditions: in vivo
[25] = AUC (0 to infinity) in Balb/c mouse at 1 mg/kg, iv; type: ADME, organism-based; parameters: time infinity, dose 1 mg/kg, route intravenous; conditions: plasma
[26] = Intrinsic clearance in Balb/c mouse liver microsomes at 100 uM; type: ADME, Microsome; conditions: read-out: CLH
[27] = AUC (0 to infinity) in Balb/c mouse at 10 mg/kg, po; type: ADME, organism-based; parameters: time infinity, dose 10 mg/kg, route oral; conditions: plasma
[28] = MRTlast in Balb/c mouse at 10 mg/kg, po; type: ADME, organism-based; parameters: dose 10 mg/kg, route oral; conditions: in vivo
[29] = Oral bioavailability in Balb/c mouse at 10 mg/kg; type: ADME, organism-based; conditions: in vivo
[30] = Permeability of the compound from basolateral to apical side of human Caco2 cells at 10 uM; type: ADME, cell-based; conditions: Caco-2, read-out: permeability

## Cc1cc2oc(=O)cc(-c3ccccc3)c2c(C)c1Br
[1]
  Activity: inactive

## Cc1cc2oc(=O)cc(-c3ccccc3)c2c(C)c1-c1cccc(Cl)c1
[2]
  IC90: 260 µM

## Cc1cc2oc(=O)cc(-c3ccccc3)c2c(C)c1-c1ccc(CN2CCCCC2)cc1
HepG2
  Activity: Non-toxic
[2]
  IC90: 19 µM

## CCCCCCNCc1ccc(-c2c(C)cc3oc(=O)cc(-c4ccccc4)c3c2C)cc1
[2]
  IC90: 4 µM

## Cc1cc2oc(=O)cc(-c3ccccc3)c2c(C)c1-c1cncnc1
[2]
  IC90: 8 µM

## Cc1cc2oc(=O)cc(-c3ccccc3)c2c(C)c1-c1ccccc1Cl
HepG2
  Activity: Non-toxic
[2]
  IC90: 22 µM

## COc1ccc(C2=CC(=O)Cc3cc(C)c(-c4ccc(CN5CCOCC5)cc4)c(C)c32)cc1
[3]
  Activity: inactive

## Cc1cc2oc(=O)cc(-c3ccccc3)c2c(C)c1-c1ccc(C)c2ccccc12
[1]
  Activity: inactive

## Cc1cc2oc(=O)cc(-c3ccccc3)c2c(C)c1-c1cccnc1
[2]
  IC90: 69 µM

## Cc1cc2oc(=O)cc(-c3ccccc3)c2c(C)c1-c1ccncc1
[4]
  solubility: 3.2 µM (≈ 1.05 µg/mL)
[5]
  remaining at 5 h, 1 µM: 83.5%
HepG2
  Activity: Non-toxic
[6]
  fraction unbound at 5 h, 1 µM: 0.012
[2]
  IC90: 2 µM

## Cc1ccc(-c2c(C)cc3oc(=O)cc(C)c3c2C)cc1
[7]
  inhibition: inactive

## Cc1cc(-c2c(C)cc3oc(=O)cc(-c4ccccc4)c3c2C)ccn1
[2]
  IC90: 36 µM

## Cc1ccc(-c2ccc3oc(=O)cc(-c4ccccc4)c3c2)cc1
[7]; 168 h
  inhibition at 250 µM: 24%

## O=c1cc(-c2ccccc2)c2cc(-c3ccc(CO)cc3)ccc2o1
[2]
  IC90: 115 µM

## Cc1c(-c2ccc(CO)cc2)ccc2oc(=O)cc(-c3ccccc3)c12
[2]
  IC90: 70 µM

## Cc1cc(-c2ccc3oc(=O)cc(-c4ccccc4)c3c2)c(C)cc1CO
[2]
  IC90: 170 µM

## Cc1cc2oc(=O)cc(-c3cccc([N+](=O)[O-])c3)c2c(C)c1-c1ccc(CN2CCOCC2)cc1
HepG2
  Activity: Non-toxic
[2]
  IC90: 6 µM

## Cc1cc2oc(=O)cc(-c3ccccc3)c2c(C)c1-c1ccc(F)cc1
[2]
  IC90: 26 µM

## Cc1cc2oc(=O)cc(-c3cccnc3)c2c(C)c1-c1ccc(CN2CCOCC2)cc1
HepG2
  Activity: Non-toxic
[2]
  IC90: 1 µM

## Cc1cc(C)c2c(-c3ccccc3)cc(=O)oc2c1
[2]
  IC90: 1100 µM

## Cc1cc2oc(=O)cc(-c3ccccc3)c2c(C)c1-c1ccc(CO)cc1
[4]
  solubility: 0.2 µM (≈ 0.0713 µg/mL)
[5]
  remaining at 5 h, 1 µM: 80.3%
HepG2
  Activity: Non-toxic
[6]
  fraction unbound at 5 h, 1 µM: 0.006
[2]
  IC90: 7 µM

## Cc1cc2oc(=O)cc(-c3ccccc3)c2c(C)c1-c1ccc(CNC2CCCCC2)cc1
HepG2
  Activity: Non-toxic
[8]
  CC50 at 48 h: 32 µM
[2]
  IC90: 5 µM

## C=Cc1ccc(-c2c(C)cc3oc(=O)cc(-c4ccccc4)c3c2C)cc1
[2]
  IC90: 184 µM

## Cc1cc2oc(=O)cc(-c3ccccc3)c2c(C)c1-c1ccc(C#N)cc1
[2]
  IC90: 295 µM

## CNC(=O)c1ccc(-c2c(C)cc3oc(=O)cc(-c4ccccc4)c3c2C)cc1
HepG2
  Activity: Non-toxic
[2]
  IC90: 7 µM

## Cc1ccc(-c2c(C)cc3oc(=O)cc(-c4ccccc4)c3c2C)cc1
[2]
  IC90: 36 µM

## Cc1cc2oc(=O)cc(-c3cccc(NS(C)(=O)=O)c3)c2c(C)c1-c1ccc(CN2CCOCC2)cc1
[2]
  IC90: 59 µM

## Cc1cc2oc(=O)cc(-c3cccc(N)c3)c2c(C)c1-c1ccc(CN2CCOCC2)cc1
[4]
  solubility: 89.3 µM (≈ 39.3 µg/mL)
[5]
  remaining at 5 h, 1 µM: 88%
[6]
  fraction unbound at 5 h, 1 µM: 0.013
[2]
  IC90: 0.4 µM

## Cc1cc2oc(=O)cc(-c3ccccc3)c2c(C)c1-c1ccc(C(F)(F)F)cc1
[2]
  IC90: 29 µM

## Cc1cc2oc(=O)cc(-c3ccccc3)c2cc1-c1ccc(CO)cc1
[2]
  IC90: 68 µM

## Cc1cc2oc(=O)cc(-c3ccccc3)c2c(C)c1-c1ccc(CN2CCOCC2)cc1
[4]
  solubility: 36.1 µM (≈ 15.4 µg/mL)
[5]
  remaining at 5 h, 1 µM: 84.4%
HepG2
  Activity: Non-toxic
[6]
  fraction unbound at 5 h, 1 µM: 0.014
[2]
  IC90: 0.5 µM

## COc1ccccc1-c1c(C)cc2oc(=O)cc(-c3ccccc3)c2c1C
[1]
  Activity: inactive

## Cc1cc2oc(=O)cc(-c3ccc(N)cc3)c2c(C)c1-c1ccc(CN2CCOCC2)cc1
[2]
  IC90: 14 µM

## Cc1cc2oc(=O)cc(-c3ccccc3)c2c(C)c1-c1cccc(C(F)(F)F)c1
[1]
  Activity: inactive

## COc1cccc(-c2c(C)cc3oc(=O)cc(-c4ccccc4)c3c2C)c1
[2]
  IC90: 31 µM

## Cc1cc2oc(=O)cc(-c3cccc(N)c3)c2c(C)c1-c1ccc(CN2CCOCC2)cc1.Cl.Cl
[9]
  CL/F: 52.3 mL/min/kg
[10]
  remaining at 8 h, 1 µM: 112%
Mus musculus [11]
  Vd: 12.25 L/kg
[12]
  half-life at 100 µM: 8.63 h
[13]
  C0: 851 ng/mL
[14]
  Vd: 3.91 L/kg
[15]
  Tmax: 2 h
[16]
  Tmax: 4.98 min
[17]
  half-life: 1.45 h
[18]
  MRT last: 1.36 h
[19]
  half-life: 2.71 h
Mus musculus [20]
  C0: 642.06 ng/mL
[21]
  AUC(0-t): 513 ng·h/mL
[22]
  Papp A→B at 10 µM: 34.5 ×10⁻⁶ cm/s
[23]
  AUC(0-t): 3180 ng·h/mL
[24]
  clearance: 31.1 mL/min/kg
[25]
  AUC(0-inf): 536 ng·h/mL
[26]
  CLint scaled at 100 µM: 80.3 mL/min/kg
[27]
  AUC(0-inf): 3190 ng·h/mL
[28]
  MRT last: 4.31 h
[29]
  bioavailability: 62%
[30]
  Papp B→A at 10 µM: 76.9 ×10⁻⁶ cm/s

## Cc1cc(CO)ccc1-c1c(C)cc2oc(=O)cc(-c3ccccc3)c2c1C
HepG2
  Activity: Non-toxic
[2]
  IC90: 22 µM

## CCOC(=O)Nc1cccc(-c2cc(=O)oc3cc(C)c(-c4ccc(CN5CCOCC5)cc4)c(C)c23)c1
[2]
  IC90: 39 µM

## Cc1cc2oc(=O)cc(-c3ccccc3)c2c(C)c1-c1ccc(C(C)O)cc1 (stereo not drawn)
HepG2
  Activity: Non-toxic
[2]
  IC90: 4 µM

## Cc1cc2oc(=O)cc(-c3ccccc3)c2c(C)c1-c1cccc(F)c1
[2]
  IC90: 21 µM

## Cc1ccc(/C=C/c2c(C)cc3oc(=O)cc(-c4ccccc4)c3c2C)cc1
[2]
  IC90: 61 µM

## CC(=O)c1ccc(-c2c(C)cc3oc(=O)cc(-c4ccccc4)c3c2C)cc1
[2]
  IC90: 220 µM

## COC(=O)c1cccc(-c2cc(=O)oc3cc(C)c(-c4ccc(CN5CCOCC5)cc4)c(C)c23)c1
[2]
  IC90: 59 µM

## CC(=O)Nc1cccc(-c2cc(=O)oc3cc(C)c(-c4ccc(CN5CCOCC5)cc4)c(C)c23)c1
HepG2
  Activity: Non-toxic
[2]
  IC90: 12 µM

## Cc1cc2oc(=O)cc(-c3ccccc3)c2c(C)c1-c1ccc(Cl)cc1
[2]
  IC90: 54 µM

## Cc1cc2oc(=O)cc(-c3ccccc3)c2c(C)c1-c1ccc(CN2CCN(C)CC2)cc1
HepG2
  Activity: Non-toxic
[2]
  IC90: 5.89 µM
